Source: patent publication US20260364175A1, “COMPOSITIONS FOR DRUG ADMINISTRATION” (Aegis Therapeutics, LLC, priority 2018, published 2026)
Entries after “also recorded” stand apart in the source; their conditions may differ.

Legend:
[1] = fast-dispersing tablets 50 mg with 1% to 2% alkylsaccharide
[2] = test system: blood glucose; assay: Oral liraglutide with Intravail A3, blood glucose under dietary sugar challenge; assay type: in vivo, human; settings: Intravail A3 (FIG. 11)
Procedure: Procedure was as follows. […] Composition was mixed with disposable plastic dropper. 40 grams of dietary sugar was ingested and 60 minutes allowed to pass. Blood glucose was measured (upper arm just above elbow on left arm) using meter=To. Deposit composition on back of tongue and swallow. Blood glucose level was measured and recorded at T=10, 20, 30, 40, 55, 70, 80 and 90 min.

[3] = test system: blood glucose; assay: Ocular administration of insulin plus absorption enhancer, blood glucose in anesthetized rats; assay type: in vivo, rat (male Sprague-Dawley)
[4] = test system: blood glucose; assay: Insulin plus tetradecylmaltoside as eye drops then nose drops, blood glucose in rats; assay type: in vivo, rat
From the text: Tetradecylmaltoside (TDM) in combination with insulin also produced a drop in blood D-glucose levels when administered in the form of a drop intranasally as well as via a drop by the ocular route. […] Thus, intranasal delivery and administration of the alkyl saccharide with drug results in lowering of blood glucose levels.

[5] = test system: Escherichia coli (ATCC No. 8739); assay: Antibacterial activity, log reduction of cfu; assay type: cell-based; settings: 0.2%; day 28
From the text: (§1) The viable microorganisms used in the invention were not more than five passages removed from the original ATCC culture. As described herein, one passage is defined as the transfer of organisms from an established culture to fresh medium and all transfers are counted.
(§2) Cultures received from the ATCC are resuscitated according to the directions provided by the ATTC. Cells grown in broth were pelleted by centrifugation, resuspended in 1/20th the volume of fresh maintenance broth, and combined with an equal volume of 20% (v/v in water) sterile glycerol. Cells grown on agar were scraped from the surface into the maintenance broth also containing 10% glycerol broth. Small aliquots of the suspension were dispensed into sterile vials and the vials were stored in liquid nitrogen or in a mechanical freezer at a temperature no higher than about −50 °C. When a fresh seed-stock vial was required, it was removed and used to inoculate a series of working stock cultures. These working stock cultures were then used periodically (each day in the case of bacteria and yeast) to start the inoculum culture.
(§3) The culture conditions for the inoculum culture is substantially as described in Table IV. For example, suitable media can include but is not limited to, Soybean-Casein Digest or Sabouraud Dextrose Agar Medium. […]
(§4) The suspension should be refrigerated if it is not used within 2 hours. To confirm the initial cfu per mL estimate, the number of cfu per mL in each suspension was determined using the conditions of media and microbial recovery incubation times listed in Table IV (e.g., from about 3 to about 7 days). This value serves to calibrate the size of inoculum used in the test. The bacterial and yeast suspensions were used within 24 hours of harvest; whereas the fungal preparation can be stored under refrigeration for up to 7 days.
(§5) To determine which alkylglycoside formulations have antibacterial activity, the formulations were prepared in phosphate buffered saline (PBS) at pH 7. As a source of nutrition, either 1.5 mg/mL bovine serum albumin (BSA; see Tables V and VI) or 1 mg/mL of PYY was added (see Table VII) to the medium. BSA (CAS Number: 9048-46-8) was obtained from Sigma-Aldrich, St. Louis, MO, USA, n-dodecyl-4-O-α-D-glucopyranosyl-β-D-glucopyranoside and n-tetradecyl-4-O-α-D-glucopyranosyl-β-D-glucopyranoside were obtained from Anatrace Inc., Maumee, OH, USA, and PYY was obtained from Bachem California Inc., Torrance, CA, USA.
(§6) Antibacterial activity of the alkylglycosides were conducted in four sterile, capped bacteriological containers of suitable size into which a sufficient volume of alkylglycoside solution had been transferred. Each container was inoculated with one of the prepared and standardized inoculums and mixed. The volume of the suspension inoculum was between about 0.5% and about 1.0% of the volume of the alkylglycoside solution. […]. To determine the level of inhibition of growth, or reduction of growth based on a logarithmic scale, the initial concentration of viable microorganisms in each test preparation was estimated based on the concentration of microorganisms in each of the standardized inoculum as determined by the plate-count method. The inoculated containers were then incubated at about 22.5 °C±2.5. The growth or non-growth of the microorganisms in each culture/container were again determined at day 14 and day 28. The number of cfu present in each calculation was determined by the plate-count procedure standard in the art for the applicable intervals. The change in the orders of magnitude of bacterium and/or fungi was then determined by subtracting the first calculated log 10 values of the concentrations of cfu per mL present at the start or beginning (e.g., day 0), from the log 10 values of the concentration of cfu per mL for each microorganism at the applicable test intervals (e.g., day 14 and day 28; see Tables V, VI and VII).

[6] = test system: Staphylococcus aureus (ATCC No. 6538); assay: Antibacterial activity, log reduction of cfu; assay type: cell-based
From the text: as §1, §2, §3, §4, §5, §6

[7] = test system: Aspergillus niger (ATCC No. 16404); assay: Antimicrobial activity, log reduction of cfu; assay type: cell-based
From the text: as §1, §2, §3, §4, §5, §6

[8] = test system: Candida albicans (ATCC No. 10231); assay: Antimicrobial activity, log reduction of cfu; assay type: cell-based
From the text: as §1, §2, §3, §4, §5, §6

[9] = test system: human nasal epithelium; assay: Nasal mucosa irritation
[10] = 10 mg fast-dispersing tablet with alkylsaccharide, buccal
[11] = clinical; settings: human, in vivo
[12] = whole-swallowed tablet, oral; cited from earlier work
[13] = Raloxifene pharmacokinetics; assay type: in vivo
Procedure: The recommended dosage is one 60 mg tablet daily. […]. […].

[14] = cited from earlier work
[15] = test system: blood glucose; assay: Ocular administration of glucagon plus surfactant, blood glucose in rats; assay type: in vivo, rat; settings: eye drops, 0.5% surfactant plus glucagon (30 μg)
[16] = test system: blood glucose; settings: previous studies; cited from earlier work
[17] = Oral phenylephrine tablet bioavailability in a canine model; assay type: in vivo, dog; settings: compressed tablets
Procedure: In a canine model, subjects were dosed orally with various phenylephrine (PE) tablet formulations, and blood samples were taken to determine the rate of parent phenyl ethyl phenylephrine absorption. Blood levels of parent phenylephrine were measured. Three subject groups were created with each alkylsaccharide test group containing five subjects in each test group. All subject groups received 10 mg of phenylephrine as a single tablet. Each subject was in the fasting state for overnight and two hours post dose. Blood samples were taken at pre-dose, 5, 10, 15, 30, 45 min., 1, 2, and 3 hours.
Comparator was the standard 30 mg (total weight including excipients) phenylephrine tablet was no absorption enhancer. Group number 2 tablets contain the alkylsaccharide designated A3, which is n-dodecyl-beta-D-maltoside in the amounts of 2.5 mg, 5 mg, and 7.5 mg, respectively. Group number three tablets contain the alkylsaccharide designated B3, which is sucrose monododecanoate, in the amounts of 5 mg, 10 mg, and 20 mg, respectively.

[18] = cited from earlier work; remark: listed apart in the source
[19] = aqueous liquid with SDS and an organic acid; cited from earlier work
[20] = test system: food intake; settings: injection, on average; cited from earlier work
[21] = formulations specifically optimized for oral delivery; cited from earlier work
[22] = test system: mucociliary surfaces; settings: far below concentrations used in intranasal formulations; cited from earlier work

Q: With CN(C)CCOC(c1ccccc1)c1ccccc1 [Diphenhydramine] as the molecule, how does the onset of action [1] read?
A: more rapid onset of action

Q: With CCCCCCCCCCCCCCCC(=O)N[C@@H](CCC(=O)NCCCC[C@H](NC(=O)[C@H](C)NC(=O)[C@H](C)NC(=O)[C@H](CCC(N)=O)NC(=O)CNC(=O)[C@H](CCC(=O)O)NC(=O)[C@H](CC(C)C)NC(=O)[C@H](Cc1ccc(O)cc1)NC(=O)[C@H](CO)NC(=O)[C@H](CO)NC(=O)[C@@H](NC(=O)[C@H](CC(=O)O)NC(=O)[C@H](CO)NC(=O)[C@@H](NC(=O)[C@H](Cc1ccccc1)NC(=O)[C@@H](NC(=O)CNC(=O)[C@H](CCC(=O)O)NC(=O)[C@H](C)NC(=O)[C@@H](N)Cc1cnc[nH]1)[C@@H](C)O)[C@@H](C)O)C(C)C)C(=O)N[C@@H](CCC(=O)O)C(=O)N[C@@H](Cc1ccccc1)C(=O)N[C@H](C(=O)N[C@@H](C)C(=O)N[C@@H](Cc1c[nH]c2ccccc12)C(=O)N[C@@H](CC(C)C)C(=O)N[C@H](C(=O)N[C@@H](CCCNC(=N)N)C(=O)NCC(=O)N[C@@H](CCCNC(=N)N)C(=O)NCC(=O)O)C(C)C)[C@@H](C)CC)C(=O)O [Liraglutide] as the molecule, how does the dose response [2] read?
A: positive dose response

Q: For CCCCCCCCCCCCCCO[C@@H]1O[C@H](CO)[C@@H](O[C@H]2O[C@H](CO)[C@@H](O)[C@H](O)[C@H]2O)[C@H](O)[C@H]1O [Tetradecyl Maltoside, n-tetradecyl-4-O-α-D-glucopyranosyl-β-D-glucopyranoside], which “effect on blood glucose / ocular insulin absorption” value ([3]; 0.5% enhancer with 0.2% insulin eye drops) is on record?
A: effective as absorption enhancers

Q: And the “effect on ocular insulin absorption” value ([3]; […] enhancer with insulin eye drops)?
A: effective as absorption enhancers

Q: What about the “effect on ocular insulin absorption (alkyl chain length comparison)” value ([3]; alkylmaltosides with insulin eye drops) of the same molecule?
A: more effective

Q: What about the “Blood Glucose” value ([4]; 0 min, insulin eye drops with […]) of the same molecule?
A: 322 mg/dL

Q: And the “effect on blood glucose” value ([4]; 0.2% insulin eye drops with […] TDM)?
A: prompt and prominent drop in blood glucose levels

Q: And the “Blood Glucose” value ([4]; 15 min, insulin eye drops with […])?
A: 335 mg/dL

Q: What about the “Blood Glucose” value ([4]; 30 min, insulin eye drops with […]) of the same molecule?
A: 276 mg/dL

Q: What about the “Blood Glucose” value ([4]; 45 min, insulin eye drops with […]) of the same molecule?
A: 221 mg/dL

Q: What about the “Blood Glucose” value ([4]; 60 min, insulin eye drops with […]) of the same molecule?
A: 212 mg/dL

Q: What about the “Blood Glucose” value ([4]; 75 min, insulin eye drops with […]) of the same molecule?
A: 167 mg/dL

Q: What about the “Blood Glucose” value ([4]; 90 min, insulin eye drops with […]) of the same molecule?
A: 174 mg/dL

Q: And the “Blood Glucose” value ([4]; 120 min, insulin eye drops with […])?
A: 208 mg/dL

Q: And the “Blood Glucose” value ([4]; 135 min, after insulin nose drops with 0.5%)?
A: 129 mg/dL

Q: What about the “Blood Glucose” value ([4]; 150 min, after insulin nose drops with 0.5%) of the same molecule?
A: 74 mg/dL

Q: And the “Blood Glucose” value ([4]; 165 min, after insulin nose drops with 0.5%)?
A: 76 mg/dL

Q: What about the “Blood Glucose” value ([4]; 180 min, after insulin nose drops with 0.5%) of the same molecule?
A: 68 mg/dL

Q: And the “Blood Glucose” value ([4]; […], insulin eye drops with […])?
A: 167 mg/dL

Q: And the “growth from initial count” value [5]?
A: No growth

Q: And the log reduction at 0.2 % ([6]; ATCC6538, 336 h)?
A: ≥ 5

Q: What about the log reduction at 0.2 % ([6]; ATCC6538, 672 h) of the same molecule?
A: ≥ 5

Q: And the “growth from initial count” value ([7]; 0.2%, day 28)?
A: No growth

Q: And the log reduction at 0.2 % ([7]; Aspergillus niger, ATCC16404, 336 h)?
A: 0.5

Q: What about the log reduction at 0.2 % ([8]; ATCC10231, 336 h) of the same molecule?
A: 3

Q: What about the log reduction at 0.2 % ([8]; ATCC10231, 672 h) of the same molecule?
A: ≥ 5.4

Q: What about the “irritation of the nasal mucosa” value ([9]; […] in OTC nasal saline, daily, 33 days) of the same molecule?
A: no observable irritation of the nasal mucosa

Q: With Cc1cc2c(s1)Nc1ccccc1N=C2N1CCN(C)CC1 [olanzapine] as the molecule, how does the first-pass effect metabolism [10] read?
A: substantially reduced first-pass effect metabolism

Q: What about the Tmax ([11]; 10 mg) of the same molecule?
A: 0.25 to 0.75 h

Q: What about the Tmax ([11]; po) of the same molecule?
A: ~6 h

Q: And the hepatic extraction ratio ([11]; po)?
A: ~0.4

Q: What about the “time to peak concentrations” value [12] of the same molecule?
A: approximately 6 hours

Q: Which “circulating inactive raloxifene glucuronide” value ([13]; fast-dispersing tablet 10 mg or less, 0.5% to 5% dodecyl maltoside, buccal) does the source give for O=C(c1ccc(OCCN2CCCCC2)cc1)c1c(-c2ccc(O)cc2)sc2cc(O)ccc12 [raloxifene] here?
A: less circulating inactive raloxifene glucuronide

Q: What about the bioavailability ([13]; human, in vivo, fast-dispersing 60 mg tablet (without alkylsaccharide), read-out: absolute bioavailability) of the same molecule?
A: ~2%

Q: What about the water solubility [14] of the same molecule?
A: approx. 0.25 mg/L

Q: With CC1(C)[C@@H](O[C@@H]2OC[C@H](O[C@@H]3OC[C@@H](O)[C@H](O)[C@H]3O)[C@H](O[C@H]3O[C@H](CO)[C@@H](O)[C@H](O)[C@H]3O)[C@H]2O[C@@H]2O[C@H](CO)[C@@H](O)[C@H](O)[C@H]2O[C@H]2O[C@H](CO)[C@@H](O)[C@H](O)[C@H]2O)CC[C@]2(C)[C@H]3CCC45OCC6(CC[C@@](C)(C=O)C[C@@H]64)[C@H](O)C[C@@]5(C)[C@]3(C)CC[C@@H]12 (stereo partly shown) [saponin, reference compound] as the molecule, how does the “effect on ocular glucagon absorption / blood D-glucose” value [15] read?
A: effective; also recorded: rises significantly

Q: What about the “stimulation of insulin absorption from the eye” value [16] of the same molecule?
A: stimulated

Q: Which “increase of oral bioavailability of phenylephrine” value [17] does the source give for CCCCCCCCCCCC(=O)OC[C@H]1O[C@H](O[C@]2(CO)O[C@H](CO)[C@@H](O)[C@@H]2O)[C@H](O)[C@@H](O)[C@@H]1O [sucrose dodecanoate, sucrose monododecanoate] here?
A: up to 50%

Q: What about the “amount consumable without observable adverse effect” value ([18]; 70 kilogram person) of the same molecule?
A: 1400-2100 grams per day

Q: And the “acceptable daily intake for humans” value ([18]; about 1% of the NOAEL)?
A: 14-21 grams per day

Q: What about the NOAEL ([18]; in vivo) of the same molecule?
A: 20-30 grams/kilogram/day

Q: What about the “irritation of nasal epithelium” value ([9]; 47 days) of the same molecule?
A: no observable irritation was detected

Q: With Calcitonin: calcitonin as the molecule, how does the stability [19] read?
A: at least 6 months

Q: Which “reduction of food eaten” value [20] does the source give for “PYY: gut hormone fragment peptide PYY3-36” here?
A: 30%

Q: Which oral bioavailability [21] does the source give for “Parathyroid hormone: parathyroid hormone” here?
A: 2.1%

Q: With benzalkonium chloride as the molecule, how does the “disruption of mucociliary surfaces” value [22] read?
A: significant disruption of the mucociliary surfaces
